Here are results for 16 compounds from patent US20200131669A1, “CYCLIC PEPTIDE COMPOUND HAVING HIGH MEMBRANE PERMEABILITY, AND LIBRARY CONTAINING SAME” (Chugai Seiyaku Kabushiki Kaisha, priority 2017, published 2020).

Starred links: 1 amine or outer side, 2 acyl side, 3 side chain; linkers in the order of their positions; H or OH if unused. Positions of bridges follow the written chain, without caps; N, C: chain ends. Non-standard residues stand in square brackets, D forms with d. Residues, ends and D or L forms follow the SMILES beside them. *: point of attachment. NMeAbu(3,3-F2-piperidino) = CN[C@@H](CCN1CCCC(F)(F)C1)C(=O)O; X6 = CN([C@@H](CCN1CCC(F)(F)CC1)C(=O)[*:2])[*:1]; NMePhe(3-Cl) = CN[C@@H](Cc1cccc(Cl)c1)C(=O)O; X12 = CCCC[C@@H](O)[C@H](N[*:1])C(=O)[*:2]; NMeW = CN[C@@H](Cc1c[nH]c2ccccc12)C(=O)O; hNle(7,7-F2) = N[C@@H](CCCCC(F)F)C(=O)O; dNMehPhe = CN[C@H](CCc1ccccc1)C(=O)O; Gly(NCH2CH2Ph) = O=C(O)CNCCc1ccccc1; X9 = O=C(CN(CCOc1ccccc1)[*:1])[*:2]; NMeF = CN[C@@H](Cc1ccccc1)C(=O)O; NMeGABA = CN(CCCC(=O)[*:2])[*:1]; hPhe = N[C@@H](CCc1ccccc1)C(=O)O; NMeD = CN[C@@H](CC(=O)O)C(=O)O; NMeL = CN[C@@H](CC(C)C)C(=O)O; NMeV = CN[C@H](C(=O)O)C(C)C; NMeAbu = CC[C@H](NC)C(=O)O; NMeA = CN[C@@H](C)C(=O)O; Piperidide = C1CCN(*)CC1; Abu = CC[C@H](N)C(=O)O; Me2NCH2CH2 = CN(C)CC*; NBuGly = CCCCNCC(=O)O; NPrGly = CCCNCC(=O)O; Sar = CNCC(=O)O; tBu = CC(C)(C)*

The nature of one data set: Caco-2 membrane permeability, improved method as used in the following Examples (96-well, 20 to 24 h preincubation). The format is in vitro ADME. To be noted: human, Caco-2, Caco-2. How it is done: In the following Examples, membrane permeability was measured in accordance with the improved method established as described above. Specifically, Caco-2 cells were cultured on a 96-well Transwell for three weeks, after which DMEM+FaSSIF (1% DMSO)+compound were added to the apical side and DMEM was added to the basal side, and the cells were preincubated at 5% CO2, 37° C., and 80 rpm for 20 to 24 hours. Following the preincubation, measurement of membrane permeability was initiated by removing the preincubation solution on the apical and basal sides by suction, washing the membrane, and adding FaSSIF/HBSS buffer (1% DMSO) (pH 6.0) containing the compound to the apical side and HBSS buffer (4% BSA) (pH 7.4) to the basal side. Each well was shaken at 5% CO2, 37° C., and 80 rpm, and 180 minutes after the initiation, the sample on the basal side was collected and the permeation amount was measured by LC/MS. The membrane permeability coefficient (Papp) was calculated from the permeation amount. Herein, the terms “Caco-2 (cm/sec)” in the columns in the tables and “Papp (cm/sec)” are used in the same meaning.
A general note: Caco-2 cells form a polarised layer with tight junctions and transporters.
Compound `CCCC[C@@H](O)[C@@H]1NC(=O)[C@H](CC(C)C)N(C)C(=O)[C@H](Cc2ccccc2)N(C)C(=O)[C@H](C)NC(=O)[C@H](Cc2ccccc2)N(C)C(=O)[C@H](CC(C)C)N(C)C(=O)[C@H](C(C)C)NC(=O)[C@H](C)N(C)C(=O)C[C@@H](C(=O)N2CCCCC2)NC(=O)[C@H](CC(C)C)N(C)C(=O)CN(C)C1=O` [pd469] ([NMeA]V[NMeL][NMeF]A[NMeF][NMeL][X12][Sar][NMeL]D-Piperidide; lactam N-11) displayed a Papp A→B at 180 min of 2.5 ×10⁻⁶ cm/s.
Same read-out and setting: the value for `CC[C@@H]1NC(=O)[C@@H](CCc2ccccc2)N(C)C(=O)[C@H](CC(C)C)N(C)C(=O)[C@H](CC(C)C)NC(=O)[C@H](C)N(C)C(=O)C[C@@H](C(=O)N2CCCCC2)NC(=O)[C@H](CC(C)C)N(C)C(=O)CN(C)C(=O)[C@H]([C@@H](C)O)NC(=O)[C@H](CC(C)C)N(C)C(=O)[C@H](Cc2ccccc2)N(C)C1=O` [pd322] ([NMeA]L[NMeL][dNMehPhe][Abu][NMeF][NMeL]T[Sar][NMeL]D-Piperidide; lactam N-11) was 3.1 ×10⁻⁶ cm/s; that for `CC(C)C[C@H]1C(=O)N[C@H](C(=O)N2CCCCC2)CC(=O)N(C)[C@@H](C)C(=O)N[C@@H](C(C)C)C(=O)N(C)[C@@H](CC(C)C)C(=O)N(C)[C@@H](Cc2ccccc2)C(=O)N[C@@H](C)C(=O)N(C)[C@@H](C)C(=O)N(C)[C@@H](CC(C)C)C(=O)N[C@@H](CCc2ccccc2)C(=O)N(C)CC(=O)N1C` [pd318] ([NMeA]V[NMeL][NMeF]A[NMeA][NMeL][hPhe][Sar][NMeL]D-Piperidide; lactam N-11) was 2.5 ×10⁻⁶ cm/s.
The same measure, in the same setting: the same measure for `CC[C@H](C)[C@@H]1NC(=O)[C@H](CC(C)C)N(C)C(=O)CCCN(C)C(=O)C[C@@H](C(=O)N2CCCCC2)NC(=O)[C@H](CC(C)C)N(C)C(=O)[C@H](C)N(C)C(=O)[C@H]([C@@H](C)O)NC(=O)[C@H](CC(C)C)N(C)C(=O)[C@H](CCCCC(F)F)NC(=O)[C@H](Cc2ccccc2)N(C)C(=O)[C@H](Cc2ccccc2)N(C)C1=O` [pd333] ([NMeGABA][NMeL]I[NMeF][NMeF][hNle(7,7-F2)][NMeL]T[NMeA][NMeL]D-Piperidide; lactam N-11): 1.3 ×10⁻⁶ cm/s; for `CC(C)C[C@@H]1NC(=O)[C@H](C)N(C)C(=O)C[C@@H](C(=O)N2CCCCC2)NC(=O)[C@H](C(C)C)N(C)C(=O)CN(C)C(=O)[C@H]([C@@H](C)O)NC(=O)[C@H](CCN2CCCC(F)(F)C2)N(C)C(=O)[C@H](Cc2ccccc2)N(C)C(=O)[C@H](CC(C)C)NC(=O)[C@H](Cc2ccccc2)N(C)C(=O)[C@H](CC(C)C)N(C)C1=O` [pd391] ([NMeA]L[NMeL][NMeF]L[NMeF][NMeAbu(3,3-F2-piperidino)]T[Sar][NMeV]D-Piperidide; lactam N-11): 2.4 ×10⁻⁶ cm/s; for `CCCCN1CC(=O)N(C)[C@@H](CC(C)C)C(=O)N[C@@H](CC(C)C)C(=O)N(C)[C@@H](Cc2ccccc2)C(=O)N(C)[C@@H](C)C(=O)N[C@H](C(=O)N2CCCCC2)CC(=O)N[C@H](C(C)C)C(=O)N(C)[C@@H](Cc2ccccc2)C(=O)N[C@@H](CC(C)C)C(=O)N(C)[C@@H](CCN2CCC(F)(F)CC2)C(=O)N[C@@H]([C@@H](C)O)C1=O` [pd394] ([dV][NMeF]L[X6]T[NBuGly][NMeL]L[NMeF][NMeA]D-Piperidide; lactam N-11): 1.8 ×10⁻⁶ cm/s.
The same measure, in the same setting: the value for `CC[C@H](C)[C@@H]1NC(=O)[C@H](CC(C)C)N(C)C(=O)[C@@H](CC(C)C)NC(=O)C[C@@H](C(=O)N2CCCCC2)NC(=O)[C@H](CC(C)C)N(C)C(=O)[C@H](Cc2ccccc2)N(C)C(=O)[C@H](COC(C)(C)C)NC(=O)CN(CCc2ccccc2)C(=O)CN(C)C(=O)[C@H]([C@@H](C)O)NC(=O)[C@H](CC)N(C)C1=O` [pd413] ([dL][NMeL]I[NMeAbu]T[Sar][Gly(NCH2CH2Ph)]S(tBu)[NMeF][NMeL]D-Piperidide; lactam N-11) was 1.5 ×10⁻⁶ cm/s.
In turn, `CC[C@H]1C(=O)N(C)[C@@H](Cc2ccccc2)C(=O)N[C@@H](C)C(=O)N(C)[C@@H](CC(C)C)C(=O)N(C)[C@@H](CC)C(=O)N[C@@H]([C@@H](C)O)C(=O)N(CCc2ccccc2)CC(=O)N(C)[C@@H](CC(C)C)C(=O)N[C@H](C(=O)N2CCCCC2)CC(=O)N(C)[C@@H](C(C)C)C(=O)N[C@@H](CC(C)C)C(=O)N1C` [pd410] ([NMeV]L[NMeAbu][NMeF]A[NMeL][NMeAbu]T[Gly(NCH2CH2Ph)][NMeL]D-Piperidide; lactam N-11) had a Papp A→B at 180 min of 6 ×10⁻⁶ cm/s. This Papp A→B at 180 min is about 4-fold higher than that of the compound before.
Still for that read-out and setting: the value for `CCCN1CC(=O)N(C)[C@@H](CC(C)C)C(=O)N[C@@H](COC(C)(C)C)C(=O)N(C)[C@@H](Cc2ccccc2)C(=O)N(C)[C@@H](C(C)C)C(=O)N[C@H](C(=O)N2CCCCC2)CC(=O)N[C@H](C(C)C)C(=O)N(C)[C@@H](Cc2ccccc2)C(=O)N[C@@H](COCCN(C)C)C(=O)N(C)[C@@H](CC(C)C)C(=O)N[C@@H]([C@@H](C)O)C1=O` [pd50] ([dV][NMeF]S(Me2NCH2CH2)[NMeL]T[NPrGly][NMeL]S(tBu)[NMeF][NMeV]D-Piperidide; lactam N-11) was 0.15 ×10⁻⁶ cm/s; that for `CC[C@H](C)[C@@H]1NC(=O)[C@H](CC(C)C)N(C)C(=O)[C@@H](C)NC(=O)C[C@@H](C(=O)N2CCCCC2)NC(=O)[C@H](CC)N(C)C(=O)[C@H](Cc2ccccc2)N(C)C(=O)[C@H](COC(C)(C)C)NC(=O)[C@H](CC(C)C)N(C)C(=O)[C@H](CC)N(C)C(=O)[C@H]([C@@H](C)O)NC(=O)CN(CCOc2ccccc2)C1=O` [pd423] ([dA][NMeL]I[X9]T[NMeAbu][NMeL]S(tBu)[NMeF][NMeAbu]D-Piperidide; lactam N-11) was 1 ×10⁻⁶ cm/s; that for `CC[C@H](C)[C@H]1C(=O)N[C@@H]([C@@H](C)O)C(=O)N(C)CC(=O)N(C)[C@@H](CC(C)C)C(=O)N[C@H](C(=O)N2CCCCC2)CC(=O)N(C)[C@@H](C)C(=O)N[C@@H](CC(C)C)C(=O)N(C)[C@@H](CC(C)C)C(=O)N(C)[C@@H](C)C(=O)N[C@@H](COc2ccccc2Cl)C(=O)N(C)[C@@H](Cc2ccccc2)C(=O)N1C` [pd341] was 1.4 ×10⁻⁶ cm/s.

Staying with this data set, now noted: human, Caco-2, Caco-2 (cm/sec).
`CC(C)C[C@H]1C(=O)N(C)[C@@H](Cc2c[nH]c3ccccc23)C(=O)N(C)[C@@H](Cc2ccccc2)C(=O)N[C@@H]([C@@H](C)O)C(=O)N(C)[C@@H](C)C(=O)N(C)[C@@H](CC(C)C)C(=O)N[C@H](C(=O)N2CCCCC2)CC(=O)N(C)[C@@H](C)C(=O)N(C)[C@@H](CC(C)C)C(=O)N(C)[C@@H](CC(C)C)C(=O)N[C@@H](C(C)C)C(=O)N1C` [pd109] ([NMeA][NMeL][NMeL]V[NMeL][NMeW][NMeF]T[NMeA][NMeL]D-Piperidide; lactam N-11) had a Papp A→B at 180 min of 0.0092 ×10⁻⁶ cm/s.
On the same count and under the same terms, the same measure for `CC(C)C[C@H]1C(=O)N[C@H](C(=O)N(C)[C@@H](Cc2ccccc2)C(=O)N[C@@H](C)C(=O)N2CCCCC2)CC(=O)N(C)[C@@H](C)C(=O)N[C@@H]([C@@H](C)O)C(=O)N(C)[C@@H](C)C(=O)N(C)[C@@H](CC(C)C)C(=O)N[C@@H](C(C)C)C(=O)N(C)[C@@H](Cc2ccccc2)C(=O)N[C@@H](Cc2ccccc2)C(=O)N1C` [pd212] ([NMeA]T[NMeA][NMeL]V[NMeF]F[NMeL]D[NMeF]A-Piperidide; lactam N-9): 1.4 ×10⁻⁶ cm/s.
In turn, `CC(C)C[C@@H]1NC(=O)[C@H](Cc2ccccc2)N(C)C(=O)[C@@H](C(C)C)NC(=O)C[C@@H](C(=O)N2CCCCC2)NC(=O)[C@H](Cc2ccccc2)N(C)C(=O)[C@H](Cc2ccccc2)N(C)C(=O)[C@H](COC(C)(C)C)NC(=O)[C@H](CC(C)C)N(C)C(=O)CN(C)C(=O)[C@H]([C@@H](C)O)NC(=O)[C@H](CC(C)C)N(C)C1=O` [pd215] ([dV][NMeF]L[NMeL]T[Sar][NMeL]S(tBu)[NMeF][NMeF]D-Piperidide; lactam N-11) gave a Papp A→B at 180 min of 1.2 ×10⁻⁶ cm/s. This Papp A→B at 180 min and that of the compound before are within 1.5-fold of each other.
`CC(C)C[C@H]1C(=O)N[C@@H](COC(C)(C)C)C(=O)N(C)[C@@H](Cc2ccccc2)C(=O)N(C)[C@@H](CC(C)C)C(=O)N(C)[C@H](C(=O)N2CCCCC2)CC(=O)N2CCC[C@H]2C(=O)N(C)[C@@H](Cc2cccc(Cl)c2)C(=O)N[C@@H](C(C)C)C(=O)N(C)[C@@H](C(C)C)C(=O)N[C@@H]([C@@H](C)O)C(=O)N(C)CC(=O)N1C` [pd166] (P[NMePhe(3-Cl)]V[NMeV]T[Sar][NMeL]S(tBu)[NMeF][NMeL][NMeD]-Piperidide; lactam N-11) gave a Papp A→B at 180 min of 3.2 ×10⁻⁶ cm/s.
Same read-out and setting: the value for `CC(C)C[C@H]1C(=O)N[C@@H](COC(C)(C)C)C(=O)N(C)[C@@H](Cc2ccccc2)C(=O)N(C)[C@@H](CC(C)C)C(=O)N(C)[C@H](C(=O)N2CCCCC2)CC(=O)N[C@@H](C)C(=O)N(C)[C@@H](Cc2cccc(Cl)c2)C(=O)N[C@@H](C(C)C)C(=O)N(C)[C@@H](C(C)C)C(=O)N[C@@H]([C@@H](C)O)C(=O)N(C)CC(=O)N1C` [pd160] (A[NMePhe(3-Cl)]V[NMeV]T[Sar][NMeL]S(tBu)[NMeF][NMeL][NMeD]-Piperidide; lactam N-11) was 3.4 ×10⁻⁶ cm/s.

As usually defined, the Papp A→B is how fast a substance crosses the layer from the apical side.
